Results on 25 compounds are retold here after US12649712B2, “Indene compounds, pharmaceutical compositions thereof, and their therapeutic applications” (NucMito Pharmaceuticals Co. Ltd., priority 2020, dated 2026).

For orientation: inhibition means the drop in the measured response relative to a control, in per cent.

In the experiment the test system is alpha-smooth muscle actin (α-SMA). As to the kind of experiment: Inhibition of TGF-β induced expression of alpha-smooth muscle actin (α-SMA) in CFSC cells, western blot. In kind it is cell-based. Particulars: compound at 10 μM, TGF-β (10 ng/mL), 24 hours, decrease in band intensity vs TGF-β only. The protocol:
The ability of a compound to inhibit the TGF-β induced expression of alpha-smooth muscle actin (α-SMA) was evaluated in CCL4-treated fat storing (CFSC) cells. α-SMA is considered as a reliable marker of hepatic stellate cell activation and a key biomarker for liver fibrosis. See, e.g., Meng et al., Nat. Rev. Nephrol. 2016, 12, 325-38; Fabregat et al., FEBS J. 2016, 283, 2219-32.
CFSC cells maintained in a DMEM medium supplemented with 10% fetal bovine serum were seeded to 12-well culture dishes and grown to a confluence of 60-70% the next day. Culture was changed to a serum-free DMEM medium and treated with a compound at 10 μM in the presence of TGF-β (10 ng/mL). The cells were incubated for another 24 hours. All culture was maintained at 37° C. in 5% carbon dioxide.
A NP-40 lysate solution (50 mM Tris (pH 7.4), 150 mM NaCl, 1% NP-40) with EDTA free cocktail added was used to lyse the cells on ice for 30 min. The lysate was collected and centrifuged at 4° C. for 10 min at 12,000 rpm. The pellet was discarded and the supernatant was transferred to a new tube. Cell lysates were loaded with 5×loading buffer and boiled for 10 min, resolved by 10% SDS-polyacrylamide gel electrophoresis (SDS-PAGE), and transferred to PVDF membrane. The membrane was blocked with 5% skim milk in Tris-buffered saline and TWEEN® 20 (TBST; 10 mM Tris-HCl (pH 8.0), 150 mM NaCl, 0.1% TWEEN® 20) for 1 h at room temperature and then incubated with α-SMA and […] antibodies overnight at 4° C. After washing twice with TBST, the membrane was probed with a horseradish […] anti-immunoglobulin (1:5000 dilution) for 1 h at room temperature. After two subsequent rinses in TBST, immunoreactive products were reacted with ECL and visualized by a UVP CHEMSTUDIO™ imaging system. The western blotting bands are quantitated using an ImageJ software. The percentage of inhibition was obtained by calculating the percentage decrease in the band intensity compared to the one treated with TGF-β only.
The results are summarized in Table 1, wherein A represents a value no less of 90% inhibition, B represents a value less than 90% but no less than 80% inhibition, C represents a value less than 80% but no less than 70% inhibition, D represents a value less than 70% but no less than 50% inhibition, and E represents a value less than 50% with a compound at 10 μM.
For orientation: In western blotting, separated proteins are transferred to a membrane and probed.

`CC1=C(CC(=O)O)c2cc(F)ccc2/C1=C\c1ccc(N(C)c2ccccc2)cc1` [Compound A29, 2-[(1Z)-5-Fluoro-2-methyl-1-({4-[methyl(phenyl)amino]phenyl}methylidene)-1H-inden-3-yl]acetic acid]: the inhibition at 10 µM was in the range of 70 to 80%.

`CC1=C(CC(=O)O)c2cc(F)ccc2/C1=C\c1ccc(Oc2ccc3ccccc3c2)cc1` [Compound A14, 2-[(1Z)-5-Fluoro-2-methyl-1-{[4-(naphthalen-2-yloxy)phenyl]methylidene}-1H-inden-3-yl]acetic acid] gave an inhibition at 10 µM above 90%.

Regarding `CC1=C(CC(N)=O)c2cc(F)ccc2/C1=C\c1ccc(Oc2ccc(F)cc2)cc1` [Compound A25, 2-[(1Z)-5-Fluoro-1-{[4-(4-fluorophenoxy)phenyl]methylidene}-2-methyl-1H-inden-3-yl]acetamide], the inhibition at 10 µM was in the range of 70 to 80%.

The compound `CC1=C(CC(=O)O)c2cc(F)ccc2/C1=C\c1ccc(Oc2cccc3ncccc23)cc1` [Compound A22, (Z)-2-(5-Fluoro-2-methyl-1-(4-(quinolin-5-yloxy)benzylidene)-1H-inden-3-yl)acetic acid] displayed an inhibition at 10 µM of 50 to 70%.

Compound `CC1=C(CC(=O)O)c2cc(F)ccc2/C1=C\c1ccc(-n2cccc2)cc1` [Compound A60, 2-[(1Z)-5-Fluoro-2-methyl-1-{[4-(1H-pyrrol-1-yl)phenyl]methylidene}-1H-inden-3-yl]acetic acid] yielded an inhibition at 10 µM below 50%.

As to `CC1=C(CC(=O)O)c2cc(F)ccc2/C1=C\c1ccc(N(CCO)c2ccc(F)cc2)cc1` [Compound A34, 2-[(1Z)-5-Fluoro-1-({4-[(4-fluorophenyl)(2-hydroxyethyl)amino]phenyl}-methylidene)-2-methyl-1H-inden-3-yl]acetic acid], the inhibition at 10 µM was above 90%.

In the case of `CC1=C(CC(=O)O)c2cc(F)ccc2/C1=C\c1ccc(Oc2ccc(C(F)(F)F)cc2)cc1` [Compound D7, 2-[(1Z)-5-Fluoro-2-methyl-1-({4-[4-(trifluoromethyl)phenoxy]phenyl}-methylidene)-1H-inden-3-yl]acetic acid], the inhibition at 10 µM was above 90%.

`CC1=C(CC(=O)O)c2c(F)cc(F)cc2/C1=C\c1cccc(Oc2ccccc2)c1` [Compound D21, 2-[(1Z)-4,6-Difluoro-1-(3-(phenoxy)benzylidene)-2-methyl-1H-inden-3-yl]-acetic acid]: the inhibition at 10 µM is above 90%.

`CC1=C(CC(=O)O)c2cc(F)ccc2/C1=C\c1ccc(Oc2ccc(F)cc2F)cc1` [Compound A16, 2-[(1Z)-1-{[4-(2,4-Difluorophenoxy)phenyl]methylidene}-5-fluoro-2-methyl-1H-inden-3-yl]acetic acid] displayed an inhibition at 10 µM above 90%.

Regarding `CC1=C(CC(=O)O)c2cc(F)ccc2/C1=C\c1ccc2ccccc2c1` [Compound B34, 2-[(1Z)-5-fluoro-2-methyl-1-[(naphthalen-2-yl)methylidene]-1H-inden-3-yl]acetic acid], the inhibition at 10 µM was above 90%.

Turning to `CC1=C(CC(=O)O)c2cc(F)ccc2/C1=C\c1ccc(Oc2ccccc2)cc1` [Compound A1, 2-[(1Z)-5-Fluoro-2-methyl-1-[(4-phenoxyphenyl)methylidene]-1H-inden-3-yl]acetic acid], the inhibition at 10 µM is above 90%.

For `CC1=C(CC(=O)O)c2cc(F)ccc2/C1=C\c1ccc(Oc2ccc(F)nc2)cc1` [Compound A20, 2-[(1Z)-5-Fluoro-1-({4-[(6-fluoropyridin-3-yl)oxy]phenyl}methylidene)-2-methyl-1H-inden-3-yl]acetic acid], the inhibition at 10 µM was below 50%.

Compound `CC1=C(CC(=O)O)c2cc(F)ccc2/C1=C\c1ccc(Oc2cccc(C(C)(C)C)c2)cc1` [Compound D3, 2-[(1Z)-5-Fluoro-2-methyl-1-({4-[3-(tert-butyl)phenoxy]phenyl}methylidene)-1H-inden-3-yl]acetic acid] gave an inhibition at 10 µM above 90%.

Consider `CC1=C(CC(=O)O)c2cc(F)cc(F)c2/C1=C/c1cccc(Oc2ccccc2)c1` [Compound E6, 2-[(1E)-5,7-Difluoro-1-(3-(phenoxy)benzylidene)-2-methyl-1H-inden-3-yl]-acetic acid], for which the inhibition at 10 µM is above 90%.

Consider `CC1=C(CC(=O)O)c2cc(F)ccc2/C1=C\c1cccc(Oc2ccc(Cl)cc2)c1` [Compound D25, 2-[(1Z)-5-Fluoro-2-methyl-1-({3-[4-chlorophenoxy]phenyl}methylidene)-1H-inden-3-yl]acetic acid], for which the inhibition at 10 µM was above 90%.

As to `CC1=C(CC(=O)NO)c2cc(F)ccc2/C1=C\c1ccc(Oc2ccccc2)cc1` [Compound A23, 2-[(1Z)-5-Fluoro-2-methyl-1-[(4-phenoxyphenyl)methylidene]-1H-inden-3-yl]-N-hydroxyacetamide], the inhibition at 10 µM was above 90%.

`CC1=C(CC(=O)O)c2cc(F)ccc2/C1=C\c1ccc(Oc2ccc(C(C)(C)C)cc2)cc1` [Compound D2, 2-[(1Z)-5-Fluoro-2-methyl-1-({4-[4-(tert-butyl)phenoxy]phenyl}methylidene)-1H-inden-3-yl]acetic acid] gave an inhibition at 10 µM above 90%.

With `CC1=C(CCc2nnn[nH]2)c2ccccc2/C1=C\c1ccc(Oc2ccc(Br)cc2)cc1` [Compound A42, 5-{2-[(1Z)-1-{[4-(4-Bromophenoxy)phenyl]methylidene}-2-methyl-1H-inden-3-yl]ethyl}-1H-1,2,3,4-tetrazole], the inhibition at 10 µM is 70 to 80%.

`O=C(O)CC1=C(Cc2ccccc2)/C(=C/c2ccc(Oc3ccc(F)cc3)cc2)c2ccc(F)cc21` [Compound D9, 2-[(1Z)-5-Fluoro-2-benzyl-1-({4-[4-fluorophenoxy]phenyl}methylidene)-1H-inden-3-yl]acetic acid] gave an inhibition at 10 µM below 50%.

As for `CNC(=O)CC1=C(C)/C(=C/c2ccc(Oc3ccc(F)cc3)cc2)c2ccc(F)cc21` [Compound A26, 2-[(1Z)-5-Fluoro-1-{[4-(4-fluorophenoxy)phenyl]methylidene}-2-methyl-1H-inden-3-yl]-N-methylacetamide], the inhibition at 10 µM lay in the range of 70 to 80%.

In the case of `CC1=C(CC(=O)N(C)O)c2cc(F)ccc2/C1=C\c1ccc(Oc2ccc(F)cc2)cc1` [Compound C2, 2-[(1Z)-5-Fluoro-1-{[4-(4-fluorophenoxy)phenyl]methylidene}-2-methyl-1H-inden-3-yl]-N-hydroxy-N-methylacetamide], the inhibition at 10 µM was above 90%.

In turn, `CC1=C(Cc2nnn[nH]2)c2ccccc2/C1=C\c1cccc(Oc2ccccc2)c1` [Compound A39, 5-{[(1Z)-2-Methyl-1-[(3-phenoxyphenyl)methylidene]-1H-inden-3-yl]methyl}-1H-1,2,3,4-tetrazole] gave an inhibition at 10 µM above 90%.

The compound `COc1cc(Oc2ccc(C(C)C)cc2)ccc1/C=C1/C(C)=C(CC(=O)O)c2cc(F)ccc21` [Compound A13, 2-[(1Z)-5-Fluoro-1-({2-methoxy-4-[4-(propan-2-yl)phenoxy]phenyl}-methylidene)-2-methyl-1H-inden-3-yl]acetic acid] registered an inhibition at 10 µM below 50%.

In turn, `CC1=C(CC(=O)O)c2cc(F)ccc2/C1=C\c1ccc(Oc2ccc(C)cc2)cc1` [Compound A4, 2-[(1Z)-5-Fluoro-2-methyl-1-{[4-(4-methylphenoxy)phenyl]methylidene}-1H-inden-3-yl]acetic acid] displayed an inhibition at 10 µM above 90%.

`CC1=C(CC(=O)O)c2cc(F)ccc2/C1=C\c1ccc(Oc2cccc(C(F)(F)F)c2)cc1` [Compound A9, (Z)-2-(5-Fluoro-2-methyl-1-(4-(3-(trifluoromethyl)phenoxy)benzylidene)-1H-inden-3-yl)acetic acid] showed an inhibition at 10 µM above 90%.
